{
  "source": "patent US10206399B2",
  "about": "“Herbicidal composition comprising uracil compound as active ingredient” (Dongbu Farm Hannong Co., Ltd., priority 2012, dated 2019)",
  "key": {"Echinochloa crus [1]": {"test_system": "Echinochloa crus", "test": "Paddy field farming herbicidal composition test, plant mortality", "assay_type": "in vivo", "description": "(§1) X is % damage by uracil compound (a) of formula 1 at the rate of application of p kg/ha; Y is % damage by conventional herbicidal compound (b) at the rate of application of q kg/ha; and E is the expected damage caused by compounds (a) and (b) at a rate of application of p and q kg/ha.\n(§2) The expected activity for a given combination of two herbicides can be calculated using equation 1 above."}, "Monochoria vaginalis": {"test_system": "Monochoria vaginalis", "test": "Paddy field farming herbicidal composition test, plant mortality", "assay_type": "in vivo", "description": "as §1, §2"}, "Echinochloa crus [2]": {"test_system": "Echinochloa crus", "conditions": "Echinochloa crus", "description": "as §1, §2"}, "Digitaria sanguinalis [3]": {"test_system": "Digitaria sanguinalis", "conditions": "Digitaria sanguinalis", "description": "as §1, §2"}, "Xanthium spinosum": {"test_system": "Xanthium spinosum", "test": "whole plant or invertebrate", "description": "as §1, §2"}, "Aeschynomene indica [4]": {"test_system": "Aeschynomene indica", "test": "whole plant or invertebrate", "description": "as §1, §2"}, "Abutilon theophrasti [5]": {"test_system": "Abutilon theophrasti", "conditions": "20 g/ha; Abutilon theophrasti", "description": "as §1, §2"}, "Abutilon theophrasti [6]": {"test_system": "Abutilon theophrasti", "test": "whole plant or invertebrate", "description": "as §1, §2"}, "Digitaria sanguinalis [7]": {"test_system": "Digitaria sanguinalis", "test": "Dry field farming herbicidal composition test, plant mortality", "assay_type": "in vivo", "description": "as §1, §2"}, "Aeschynomene indica [8]": {"test_system": "Aeschynomene indica", "test": "Dry field farming herbicidal composition test, plant mortality", "assay_type": "in vivo", "description": "as §1, §2"}, "Abutilon theophrasti [9]": {"test_system": "Abutilon theophrasti", "test": "Dry field farming herbicidal composition test, plant mortality", "assay_type": "in vivo", "description": "as §1, §2"}, "Echinochloa crus [10]": {"test_system": "Echinochloa crus", "test": "Dry field farming herbicidal composition test, plant mortality", "assay_type": "in vivo", "description": "as §1, §2"}, "[11]": {"conditions": "Echinochloa, read-out: Echinochloa crus mortality, measured value"}, "[12]": {"conditions": "read-out: plant mortality, measured value, 20 g/ha"}, "[13]": {"conditions": "read-out: plant mortality, measured value, 40 g/ha"}, "[14]": {"conditions": "read-out: plant mortality, measured value, 80 g/ha"}, "[15]": {"conditions": "Digitaria sanguinalis, read-out: Digitaria sanguinalis mortality, measured value"}, "[16]": {"conditions": "Aeschynomene indica, read-out: Aeschynomene indica mortality, measured value"}, "[17]": {"conditions": "Abutilon theophrasti, read-out: Abutilon theophrasti mortality, measured value"}},
  "note": "Where two headings read alike, the source gives them in different places.",
  "data": [
    {"compound": "COP(=S)(OC)SCC(=O)N(c1ccc(Cl)cc1)C(C)(C)C", "note": "[Anilofos]", "values": [
      {"measurement": "pest or weed control at 75 g/ha", "setting": "Echinochloa crus [1]; [11]", "result": 50, "unit": "%"},
      {"measurement": "pest or weed control at 75 g/ha", "setting": "Monochoria vaginalis; Pontederia vaginalis, read-out: Monochoria vaginalis mortality (measured value)", "result": 0, "unit": "%"}
    ]},
    {"compound": "COc1cc(OC)nc(NC(=O)NS(=O)(=O)c2c(-c3nnn(C)n3)cnn2C)n1", "note": "[Azimsulfuron]", "values": [
      {"measurement": "pest or weed control at 5 g/ha", "setting": "Echinochloa crus [1]; Echinochloa, 5 g/ha, read-out: Echinochloa crus mortality (measured value)", "result": 30, "unit": "%"},
      {"measurement": "pest or weed control at 5 g/ha", "setting": "Monochoria vaginalis; Pontederia vaginalis, 5 g/ha, read-out: Monochoria vaginalis mortality (measured value)", "result": 50, "unit": "%"}
    ]},
    {"compound": "CS(=O)(=O)c1ccc(C(=O)C2=C(Sc3ccccc3)C3CCC(C3)C2=O)c(Cl)c1", "note": "(stereo not shown) [Benzobicyclon]", "values": [
      {"measurement": "Echinochloa crus mortality, measured value", "setting": "Echinochloa crus [1]; 50 g/ha", "result": 0},
      {"measurement": "Monochoria vaginalis mortality (measured value)", "setting": "Monochoria vaginalis; 50 g/ha", "result": 30}
    ]},
    {"compound": "C=CCOC(=O)C(C)(C)OC(=O)c1cc(-n2c(=O)cc(C(F)(F)F)n(C)c2=O)ccc1Cl", "note": "[Butafenacil]", "values": [
      {"measurement": "plant mortality, measured value", "setting": "Echinochloa crus [2]; 4 g/ha", "result": 0},
      {"measurement": "plant mortality, measured value", "setting": "Echinochloa crus [2]; 8 g/ha", "result": 0},
      {"measurement": "plant mortality, measured value", "setting": "Echinochloa crus [2]; 20 g/ha", "result": 12},
      {"measurement": "plant mortality, measured value", "setting": "Echinochloa crus [2]; 40 g/ha", "result": 30},
      {"measurement": "plant mortality, measured value", "setting": "Echinochloa crus [2]; 80 g/ha", "result": 53},
      {"measurement": "plant mortality, measured value", "setting": "Digitaria sanguinalis [3]; 4 g/ha", "result": 0},
      {"measurement": "plant mortality, measured value", "setting": "Digitaria sanguinalis [3]; 20 g/ha", "result": 12},
      {"measurement": "plant mortality, measured value", "setting": "Digitaria sanguinalis [3]; 40 g/ha", "result": 40},
      {"measurement": "plant mortality, measured value", "setting": "Digitaria sanguinalis [3]; 80 g/ha", "result": 70},
      {"measurement": "pest or weed control at 4 g/ha", "setting": "Xanthium spinosum; read-out: plant mortality, measured value, 4 g/ha", "result": 15, "unit": "%"},
      {"measurement": "pest or weed control at 16 g/ha", "setting": "Xanthium spinosum; read-out: plant mortality, measured value, 16 g/ha", "result": 54, "unit": "%"},
      {"measurement": "pest or weed control at 20 g/ha", "setting": "Xanthium spinosum; [12]", "result": 42, "unit": "%"},
      {"measurement": "pest or weed control at 40 g/ha", "setting": "Xanthium spinosum; [13]", "result": 90, "unit": "%"},
      {"measurement": "pest or weed control at 80 g/ha", "setting": "Xanthium spinosum; [14]", "result": 100, "unit": "%"},
      {"measurement": "pest or weed control at 8 g/ha", "setting": "Aeschynomene indica [4]; read-out: plant mortality, measured value, 8 g/ha", "result": 45, "unit": "%"},
      {"measurement": "pest or weed control at 20 g/ha", "setting": "Aeschynomene indica [4]; [12]", "result": 51, "unit": "%"},
      {"measurement": "pest or weed control at 40 g/ha", "setting": "Aeschynomene indica [4]; [13]", "result": 99, "unit": "%"},
      {"measurement": "pest or weed control at 80 g/ha", "setting": "Aeschynomene indica [4]; [14]", "result": 100, "unit": "%"},
      {"measurement": "plant mortality, measured value", "setting": "Abutilon theophrasti [5]", "result": 55},
      {"measurement": "pest or weed control at 20 g/ha", "setting": "Abutilon theophrasti [6]; [12]", "result": 55, "unit": "%"},
      {"measurement": "pest or weed control at 40 g/ha", "setting": "Abutilon theophrasti [6]; [13]", "result": 94, "unit": "%"},
      {"measurement": "pest or weed control at 80 g/ha", "setting": "Abutilon theophrasti [6]; [14]", "result": 100, "unit": "%"}
    ]},
    {"compound": "COc1ncc(F)c2nc(S(=O)(=O)Nc3c(F)cccc3F)nn12", "note": "[Florasulam]", "values": [
      {"measurement": "Digitaria sanguinalis mortality, measured value", "setting": "Digitaria sanguinalis [7]; 1 g/ha", "result": 0, "unit": "%"},
      {"measurement": "Digitaria sanguinalis mortality, measured value", "setting": "Digitaria sanguinalis [7]; 2 g/ha", "result": 0, "unit": "%"},
      {"measurement": "Digitaria sanguinalis mortality, measured value", "setting": "Digitaria sanguinalis [7]; 4 g/ha", "result": 0, "unit": "%"},
      {"measurement": "Aeschynomene indica mortality, measured value", "setting": "Aeschynomene indica [8]; 1 g/ha", "result": 8, "unit": "%"},
      {"measurement": "Aeschynomene indica mortality, measured value", "setting": "Aeschynomene indica [8]; 2 g/ha", "result": 18, "unit": "%"},
      {"measurement": "Aeschynomene indica mortality, measured value", "setting": "Aeschynomene indica [8]; 4 g/ha", "result": 46, "unit": "%"},
      {"measurement": "Abutilon theophrasti mortality, measured value", "setting": "Abutilon theophrasti [9]; 1 g/ha", "result": 12},
      {"measurement": "Abutilon theophrasti mortality, measured value", "setting": "Abutilon theophrasti [9]; 2 g/ha", "result": 23},
      {"measurement": "Abutilon theophrasti mortality, measured value", "setting": "Abutilon theophrasti [9]; 4 g/ha", "result": 54},
      {"measurement": "Echinochloa crus mortality, measured value", "setting": "Echinochloa crus [10]; 1 g/ha", "result": 0, "unit": "%"},
      {"measurement": "Echinochloa crus mortality, measured value", "setting": "Echinochloa crus [10]; 2 g/ha", "result": 0, "unit": "%"},
      {"measurement": "Echinochloa crus mortality, measured value", "setting": "Echinochloa crus [10]; 4 g/ha", "result": 0, "unit": "%"},
      {"measurement": "Corn mortality, measured value", "setting": "corn; 1 g/ha", "result": 0},
      {"measurement": "Corn mortality, measured value", "setting": "corn; 2 g/ha", "result": 0},
      {"measurement": "Corn mortality, measured value", "setting": "corn; 4 g/ha", "result": 0}
    ]},
    {"compound": "CC(C)N(C(=O)COc1nnc(C(F)(F)F)s1)c1ccc(F)cc1", "note": "[Flufenacet]", "values": [
      {"measurement": "pest or weed control at 87.5 g/ha", "setting": "Digitaria sanguinalis [7]; [15]", "result": 7, "unit": "%"},
      {"measurement": "pest or weed control at 175 g/ha", "setting": "Digitaria sanguinalis [7]; [15]", "result": 22, "unit": "%"},
      {"measurement": "pest or weed control at 350 g/ha", "setting": "Digitaria sanguinalis [7]; [15]", "result": 53, "unit": "%"},
      {"measurement": "pest or weed control at 87.5 g/ha", "setting": "Aeschynomene indica [8]; [16]", "result": 6, "unit": "%"},
      {"measurement": "pest or weed control at 175 g/ha", "setting": "Aeschynomene indica [8]; [16]", "result": 18, "unit": "%"},
      {"measurement": "pest or weed control at 350 g/ha", "setting": "Aeschynomene indica [8]; [16]", "result": 46, "unit": "%"},
      {"measurement": "pest or weed control at 87.5 g/ha", "setting": "Abutilon theophrasti [9]; [17]", "result": 9, "unit": "%"},
      {"measurement": "pest or weed control at 175 g/ha", "setting": "Abutilon theophrasti [9]; [17]", "result": 23, "unit": "%"},
      {"measurement": "pest or weed control at 350 g/ha", "setting": "Abutilon theophrasti [9]; [17]", "result": 46, "unit": "%"},
      {"measurement": "pest or weed control at 87.5 g/ha", "setting": "Echinochloa crus [10]; [11]", "result": 7, "unit": "%"},
      {"measurement": "pest or weed control at 175 g/ha", "setting": "Echinochloa crus [10]; [11]", "result": 24, "unit": "%"},
      {"measurement": "pest or weed control at 350 g/ha", "setting": "Echinochloa crus [10]; [11]", "result": 50, "unit": "%"},
      {"measurement": "Corn mortality, measured value", "setting": "corn; 87.5 g/ha", "result": 0},
      {"measurement": "Corn mortality, measured value", "setting": "corn; 175 g/ha", "result": 0},
      {"measurement": "Corn mortality, measured value", "setting": "corn; 350 g/ha", "result": 1}
    ]}
  ]
}
